Measurements as given in US9782464B2, “Methods and compositions for inhibiting diseases of the central nervous system” (Board of Regents of the University of Nebraska, priority 2008, dated 2017).

What was measured:
primary microglia = assay: Flow cytometry of active caspase-3 and cathepsin B (CB) in microglia; format: cell-based, mouse; conditions: N-α-syn-stimulated cultures
Method: Samples from cell fractions were labeled with fluorescently labeled Abs to CD4, CD8, CD25, CTLA-4, CD62L, Fas ligand (FasL), Fas (APO-1), CD1 b, and intracellular FoxP3 (eBioscience) and active caspase-3 (Abcam) and analyzed with a FACSCalibur flow cytometer (BD Biosciences). FITC-latex beads ([…], 2.5% solids; Sigma-Aldrich) were added to microglial cultures for 30 minutes. Microglia were then detached and acid-washed (PBS, pH 6.0) to quench fluorescence of nonphagocytosed beads, and cells were analyzed by flow cytometry and gated to CD11b+ cells. Fluorescence intensity was normalized to beads alone.
Apoptotic cells were detected using the TACS TdT Fluorescein In Situ Apoptosis Detection kit (R&D Systems) according to the manufacturer's protocol and were visualized by a fluorescent microscope. MFI of TUNEL+ cells was determined per field using ImageJ and was normalized to DAPI-stained nuclei (n=3, six fields per well). Caspase activity was determined using the SensoLyte Homogeneous Rh110 Caspase-3/7 Assay kit (AnaSpec) according to the manufacturer's protocol. Cell viability was determined by 3-(4,5-dimethylthiazol-2-yl)-2,5-diphenyl tetrazolium bromide (MTT) activity as described previously. Functional grade Abs to mouse FasL (2 μg/ml; eBioscience) and Fas (5 μg/ml; BD PharMingen) and CA074ME (BIOMOL) were used.

MES23.5 cells = assay: Cathepsin B inhibition and neurotoxicity, microglial supernatants on MES23.5 cells; format: cell-based; conditions: inhibitor 1 μM, N-α-syn 100 nM
Method: MES 23.5 cells were cultured in 75-cm^2 flasks in DMEM/F12 with 15 mM HEPES (Invitrogen) containing N2 supplement (Invitrogen), 100 U/ml of penicillin, 100 μg/ml streptomycin, and 5% FBS. MES23.5 cells is a cell line derived using somatic cell fusion of rat embryonic mesencephalon cells and the murine neuroblastoma-glioma cell line N18TG2 that produce dopamine and express tyrosine hydroxylase (Crawford et al. (1992) J. Neuroscience 12:3392-3398). Cells were grown to 80% confluence then plated at a density of 10×10^4 cells on sterile glass coverslips. Microglia were plated in 6 well plates and incubated for 1 hour with or without 1 μM of cathepsin B inhibitors, CA-074 [cell impermeable] or CA-074 Me [cell permeable] (Sigma), in a 37° C., 5% CO2 incubator to inhibit residual cathepsin B expression (Gan et al. (2004) J. Biol. Chem., 279:5565-5572). […] MES 23.5 cell viability was assessed using the Live/Dead cytotoxicity assay (Invitrogen) as previously described. Live cells were distinguished by the uptake of calcein AM to acquire a green fluorescence [excitation/emission (ex/em) 495/515 nm], while dead cells acquired a red fluorescence (ex/em 495/635 nm) due to the uptake of ethidium homodimer-1 (EthD-1). Cell enumerations were performed using fluorescence microscopy (200× magnification, n=6 wells per group, 3 frames per well).

SPC (spleen cells) = assay: Antigen-specific 3H-thymidine proliferation of SPC from immunized mice; format: cell-based, mouse
TNF-α = assay: Cytometric bead array of T cells restimulated with antigen; format: cell-based, mouse; conditions: T cells from N-4YSyn-immunized donors restimulated in vitro
Method: Triplicate co-cultures of antigen presenting cells (APC) and T cells from PBS, 4YSyn- and N-4YSyn-immunized mice were stimulated with 4YSyn or N-4YSyn. After 24 hours of culture, 50 μl samples were collected, centrifuged, and supernatants frozen at −80° C. until utilized. Frozen supernatants were thawed only once and analyzed using the BD Cytometric Bead Array Mouse Th1/Th2 Kit (BD Biosciences, San Jose, Calif.) according to the manufacturer's instructions.

[1] = test system: anti-CD3 stimulated T cells; assay: PI uptake cytotoxicity of anti-CD3 stimulated T cells (flow cytometry); format: cell-based, mouse; conditions: 24 hours
Method: To assess α-Syn-mediated cytotoxicity, purified T cells were stimulated with anti-CD3 and cultured at a density of 1×10^6 cells/ml for 24 hours in media alone or in the presence of 4YSyn or N-4YSyn at concentrations of 1, 3, 10, or 30 μg/ml. Cells were stained with PI, washed and the percentages of PI^+ dead cells and MFI were analyzed by flow cytometry.

effector T cells = assay: Treg inhibition of CD3-mediated effector T cell proliferation; format: cell-based, mouse; conditions: Treg from FoxP3-GFP donors, ratio of 1:1
Method: Seven days following treatment, mice were sacrificed and single cell suspensions were prepared from inguinal lymph nodes and spleens. CD4+ T cell populations from spleens and lymph nodes were enriched by negative selection with CD4-enrichment columns (R & D Systems) followed by CD25-PE positive selection with AutoMACS (Miltenyi Biotec). […] Proliferation and inhibition assays were performed as described. MPTP-intoxicated mice received an i.v. tail injection of 5×10^7 SPC or 1×10^6 Treg in 0.25 ml of HBSS.

Row | Molecule | diminution of active caspase-3+ cells (primary microglia) [%] | protection of DA cells v. N-α-syn alone (MES23.5 cells) [%] | proliferative response of SPC to in vitro stimulation with the antigen (SPC (spleen cells); B6 mice immunized with N-4YSyn/PBS without adjuvant) | proliferative response of SPC to in vitro stimulation with the antigen (SPC (spleen cells); B10.BR mice immunized in CFA/IFA) | TNF-α levels (TNF-α) [pg/mL] | % PI+ T cells ([1]; 1 μg/ml) [%] | MFI of PI-stained T cells ([1]; 1 μg/ml) | % PI+ T cells ([1]; 3 μg/ml) [%] | MFI of PI-stained T cells ([1]; 3 μg/ml) | % PI+ T cells ([1]; 10 μg/ml) [%] | MFI of PI-stained T cells ([1]; 10 μg/ml) | % PI+ T cells ([1]; 30 μg/ml) [%] | MFI of PI-stained T cells ([1]; 30 μg/ml) | inhibition of effector T cell proliferation to anti-CD3 stimulation by Treg (effector T cells) [%]
1 | CCCNC(=O)[C@H]1O[C@@H]1C(=O)N[C@H](C(=O)N1CCC[C@H]1C(=O)OC)[C@@H](C)CC [CA-074 Me] | 11.1±0.5 | 87 | – | – | – | – | – | – | – | – | – | – | – | –
2 | N-4YSyn: peroxynitrite-nitrated recombinant His-tagged C-terminal 40 aa fragment of mouse α-Syn | – | – | significant lymphocyte proliferative response | significant proliferative responses | 26.0 ± 1.2 | 15.9 | 42.8 | 17.9 | 58.7 | 47.8 | 71.6 | 91.3 | 106.1 | 20
